The target of assay [1] is VPS34 (Homo sapiens (Human), UniProt Q8NEB9). Description: Biochemical Assay for VPS34 (ADP-Glo kinase activity assay). Conditions: 25 nM VPS34, 1 mM ATP, 1-hour incubation at 37° C.; read-out: VPS34 (Inhibition of biochemical activity of VPS34, IC50). As for the experimental part:
Activity of VPS34 kinase was determined using an ADP-Glo kinase activity assay (Promega Corp). Assays were conducted in 384-well plates (5 μL assay volume) using 25 nM VPS34 (ThermoFisher Scientific), […] PI:3PS Lipid Kinase Substrate (Promega Corp.), and 1 mM ATP in kinase buffer. Inhibition of VPS34 was measured by adding serial diluted test compound (final assay concentration of 0.1% DMSO) followed by a 1-hour incubation at 37° C. ADP-Glo reagent was then added ([…]) followed by a 40 min incubation at rt. Kinase detection reagent was then added ([…]) and followed by a 60 min incubation at rt. Luminescence was then detected. The RLU at each compound concentration of was converted to percent inhibition using controls (i.e., reaction with no test compound and reaction with a known inhibitor) and IC50 values were calculated by fitting a four-parameter sigmoidal curve to the data using GeneData Screener software.
VPS34 Protein Sequence (Full Length with GST Tag)
Background: ADP-Glo first removes unused ATP, then detects ADP through luciferase.

The target in assay [2] is PI3K (p110α (E542K)/p85α) (Homo sapiens (Human), UniProt P42336, E542K). Description: Lipid kinase selectivity panel (Reaction Biology). It is filed as biochemical. Conditions: 1 μM compound, single dose duplicates, 10 μM ATP; read-out: Percent inhibition relative to DMSO control, PI3K (p110α (E542K)/p85α). As for the experimental part:
(§1) The compounds of the present invention were tested in a standard lipid kinase selectivity panel: 16 other lipid kinases (Reaction Biology, Malvern, PA, USA), under conditions of non-disclosure, non-dissemination, and non-use. In brief, compounds (see Table 2) were tested at in single dose duplicates at 1 μM against lipid kinases, including PI3Kα, PI3Kβ, and PI3Kδ, and reactions were carried out at 10 μM ATP.

Assay [3] concerns the target PI3Kb (p110β/p85α) (Homo sapiens (Human), UniProt P42338). Put plainly: Lipid kinase selectivity panel (Reaction Biology). Conditions: 1 μM compound, single dose duplicates, 10 μM ATP; read-out: Percent inhibition relative to DMSO control, PI3Kb (p110β/p85α). It is filed as biochemical. As for the experimental part:
as §1

Assay [4] has as its target PI3K (p110α (H1047R)/p85α) (Homo sapiens (Human), UniProt P42336, H1047R). Description: Lipid kinase selectivity panel (Reaction Biology). It is filed as biochemical. Conditions: 1 μM compound, single dose duplicates, 10 μM ATP; read-out: Percent inhibition relative to DMSO control, PI3K (p110α (H1047R)/p85α). The protocol: as §1
Assay [5] addresses PI3Kg (p110γ) (Homo sapiens (Human), UniProt P48736). Put plainly: Lipid kinase selectivity panel (Reaction Biology). It is filed as biochemical. Conditions: 1 μM compound, single dose duplicates, 10 μM ATP; read-out: Percent inhibition relative to DMSO control, PI3Kg (p110γ). The protocol:
as §1

In assay [6] the target is PI3K (p110α (E545K)/p85α) (Homo sapiens (Human), UniProt P42336, E545K). Description: Lipid kinase selectivity panel (Reaction Biology). It is filed as biochemical. Conditions: 1 μM compound, single dose duplicates, 10 μM ATP; read-out: Percent inhibition relative to DMSO control, PI3K (p110α (E545K)/p85α). As for the experimental part:
as §1

In assay [7] the target is PI3Kd (p110δ/p85α) (Homo sapiens (Human), UniProt O00329). Put plainly: Lipid kinase selectivity panel (Reaction Biology). It is filed as biochemical. Conditions: 1 μM compound, single dose duplicates, 10 μM ATP; read-out: Percent inhibition relative to DMSO control, PI3Kd (p110δ/p85α). As for the experimental part:
as §1

Assay [8] deals with PI3Kα (p110α/p85α) (Homo sapiens (Human), UniProt P42336). Put plainly: Lipid kinase selectivity panel (Reaction Biology). It is filed as biochemical. Conditions: 1 μM compound, single dose duplicates, 10 μM ATP; read-out: Percent inhibition relative to DMSO control, PI3Kα (p110α/p85α). As for the experimental part:
as §1

Assay [9] has as its target PI3KC2α (Homo sapiens (Human), UniProt O00443). Description: Lipid kinase selectivity panel (Reaction Biology). It is filed as biochemical. Conditions: 1 μM compound, single dose duplicates, 10 μM ATP; read-out: Percent inhibition relative to DMSO control, PI3KC2α. As for the experimental part:
as §1

The target in assay [10] is PI3K (p110α/p65α) (Homo sapiens (Human), UniProt P42336). Put plainly: Lipid kinase selectivity panel (Reaction Biology). It is filed as biochemical. Conditions: 1 μM compound, single dose duplicates, 10 μM ATP; read-out: Percent inhibition relative to DMSO control, PI3K (p110α/p65α). As for the experimental part: as §1
Sequence of PI3K (p110α/p65α) (P42336 whole entry, species assumed): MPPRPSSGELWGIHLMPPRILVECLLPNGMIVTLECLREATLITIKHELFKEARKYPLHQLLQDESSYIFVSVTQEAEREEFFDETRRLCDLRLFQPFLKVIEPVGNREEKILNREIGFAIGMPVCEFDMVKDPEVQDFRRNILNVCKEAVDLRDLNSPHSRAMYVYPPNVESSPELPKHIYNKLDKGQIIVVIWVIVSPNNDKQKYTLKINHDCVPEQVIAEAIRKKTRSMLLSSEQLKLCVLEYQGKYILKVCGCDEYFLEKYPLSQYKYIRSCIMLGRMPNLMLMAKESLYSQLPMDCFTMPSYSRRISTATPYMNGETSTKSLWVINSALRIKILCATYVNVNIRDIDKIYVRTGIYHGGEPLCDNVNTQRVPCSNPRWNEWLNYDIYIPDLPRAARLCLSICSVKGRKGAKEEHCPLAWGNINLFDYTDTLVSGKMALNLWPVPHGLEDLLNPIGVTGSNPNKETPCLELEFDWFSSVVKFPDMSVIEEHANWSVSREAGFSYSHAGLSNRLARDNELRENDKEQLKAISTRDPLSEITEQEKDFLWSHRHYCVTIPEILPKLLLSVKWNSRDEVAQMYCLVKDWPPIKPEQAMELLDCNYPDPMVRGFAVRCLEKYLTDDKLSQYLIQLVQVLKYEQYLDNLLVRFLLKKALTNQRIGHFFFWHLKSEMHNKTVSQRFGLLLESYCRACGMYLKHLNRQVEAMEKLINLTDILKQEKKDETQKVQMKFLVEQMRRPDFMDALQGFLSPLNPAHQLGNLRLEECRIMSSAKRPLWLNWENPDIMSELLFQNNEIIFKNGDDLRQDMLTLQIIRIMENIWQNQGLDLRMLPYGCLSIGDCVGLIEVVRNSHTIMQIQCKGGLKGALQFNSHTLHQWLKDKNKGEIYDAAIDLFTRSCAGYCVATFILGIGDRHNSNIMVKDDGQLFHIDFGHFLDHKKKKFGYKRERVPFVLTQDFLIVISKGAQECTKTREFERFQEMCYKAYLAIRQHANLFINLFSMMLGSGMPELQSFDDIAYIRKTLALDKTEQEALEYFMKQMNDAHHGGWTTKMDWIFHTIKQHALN

Sequence of PI3Kb (p110β/p85α) (P42338 whole entry, species assumed): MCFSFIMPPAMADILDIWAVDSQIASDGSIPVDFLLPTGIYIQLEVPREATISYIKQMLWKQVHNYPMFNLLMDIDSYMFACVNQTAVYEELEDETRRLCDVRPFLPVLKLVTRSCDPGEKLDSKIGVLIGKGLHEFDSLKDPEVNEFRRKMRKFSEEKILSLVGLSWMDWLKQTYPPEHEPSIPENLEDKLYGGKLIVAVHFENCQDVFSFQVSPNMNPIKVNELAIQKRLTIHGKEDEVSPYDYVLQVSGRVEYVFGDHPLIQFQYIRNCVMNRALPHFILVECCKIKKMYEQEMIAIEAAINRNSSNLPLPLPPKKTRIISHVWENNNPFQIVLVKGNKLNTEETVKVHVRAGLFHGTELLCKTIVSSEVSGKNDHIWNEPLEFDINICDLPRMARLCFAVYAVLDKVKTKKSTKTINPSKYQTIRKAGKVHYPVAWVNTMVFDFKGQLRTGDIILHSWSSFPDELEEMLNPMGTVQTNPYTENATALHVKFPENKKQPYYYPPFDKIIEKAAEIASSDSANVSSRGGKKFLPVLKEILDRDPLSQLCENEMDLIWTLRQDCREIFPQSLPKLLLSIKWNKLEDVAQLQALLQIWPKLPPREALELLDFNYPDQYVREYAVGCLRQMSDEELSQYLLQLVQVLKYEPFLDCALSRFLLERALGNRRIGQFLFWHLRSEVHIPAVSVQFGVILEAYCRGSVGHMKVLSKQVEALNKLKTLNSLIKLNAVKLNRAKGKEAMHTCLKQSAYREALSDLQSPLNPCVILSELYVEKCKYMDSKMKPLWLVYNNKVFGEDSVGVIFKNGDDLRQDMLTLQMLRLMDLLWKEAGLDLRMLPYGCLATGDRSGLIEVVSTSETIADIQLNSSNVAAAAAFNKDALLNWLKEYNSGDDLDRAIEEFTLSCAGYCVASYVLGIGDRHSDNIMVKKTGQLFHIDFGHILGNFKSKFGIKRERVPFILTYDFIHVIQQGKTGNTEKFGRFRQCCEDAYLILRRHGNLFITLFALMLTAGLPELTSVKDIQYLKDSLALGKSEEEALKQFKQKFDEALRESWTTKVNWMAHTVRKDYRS
Sequence of PI3Kb (p110β/p85α) (P27986 whole entry partner, species assumed): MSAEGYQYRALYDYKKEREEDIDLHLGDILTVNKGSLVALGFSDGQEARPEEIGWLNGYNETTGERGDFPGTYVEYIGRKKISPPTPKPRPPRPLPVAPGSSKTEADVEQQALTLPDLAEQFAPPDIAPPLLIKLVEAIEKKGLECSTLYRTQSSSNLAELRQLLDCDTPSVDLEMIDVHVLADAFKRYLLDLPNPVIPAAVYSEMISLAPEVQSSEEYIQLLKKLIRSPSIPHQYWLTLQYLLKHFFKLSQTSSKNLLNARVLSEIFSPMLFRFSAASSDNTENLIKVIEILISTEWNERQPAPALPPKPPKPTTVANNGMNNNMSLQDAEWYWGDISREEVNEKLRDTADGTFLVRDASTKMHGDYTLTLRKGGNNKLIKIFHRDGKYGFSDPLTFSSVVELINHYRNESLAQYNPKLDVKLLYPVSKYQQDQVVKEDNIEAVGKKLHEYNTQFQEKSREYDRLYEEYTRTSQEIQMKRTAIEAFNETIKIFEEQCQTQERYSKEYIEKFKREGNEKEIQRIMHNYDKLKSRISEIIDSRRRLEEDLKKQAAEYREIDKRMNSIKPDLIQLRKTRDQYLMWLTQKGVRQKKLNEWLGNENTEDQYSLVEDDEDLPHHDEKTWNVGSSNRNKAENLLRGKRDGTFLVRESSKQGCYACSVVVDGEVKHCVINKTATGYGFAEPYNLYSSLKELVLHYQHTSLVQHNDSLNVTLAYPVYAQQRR
Sequence of PI3K (p110α (E545K)/p85α) (P42336 whole entry E545K): as the sequence (P42336 whole entry, species assumed) above, with E545K counted along it
Sequence of PI3K (p110α (E545K)/p85α) (P27986 whole entry partner): as the sequence (P27986 whole entry partner, species assumed) above

For orientation: IC50 means the midpoint of a concentration-inhibition curve. As to `COC(=O)Nc1cc(-c2cc(N3CCCC[C@@H]3C(F)(F)F)[nH]c(=O)c2)c(C)cn1` [Example 1, methyl (R)-(5-methyl-2′-oxo-6′-(2-(trifluoromethyl)piperidin-1-yl)-1′,2′-dihydro-[4,4′-bipyridin]-2-yl)carbamate], the half-maximal inhibitory concentration (IC50) in assay [1] is at most 100 nM. Further, the inhibition at 1 µM in assay [2] is 4%; in assay [3], 13%; in [4], 10%; in assay [5] it was 12%; in assay [6], 15%; in assay [7], 9%. The inhibition at 1 µM in assay [8] is 22%; in assay [9], -1%; in [10], 5%.

As to `COC(=O)Nc1cc(-c2cc(-c3cccnc3C(F)(F)F)[nH]c(=O)c2)c(F)cn1` [Example 5], the IC50 in [1] lay in the range of 100 to 500 nM. In addition, the inhibition at 1 µM is 32% in assay [2]; -6% in [3]; 35% in assay [4]; 23% in assay [5]; 32% in assay [6]; 58% in assay [7]. Further, the results for the inhibition at 1 µM in assay [8], in assay [9] and in assay [10] were 17%, 3% and 15%, respectively.

Turning to `COC(=O)Nc1ncc(C)c(-c2cc(-c3cccnc3C(F)(F)F)[nH]c(=O)c2)n1` [Example 6], the half-inhibitory concentration (IC50) in [1] was in the range of 500 to 1000 nM. For the same compound, the inhibition at 1 µM was 4% in assay [2]; -14% in [3]; 19% in [4]; 5% in assay [5]; 3% in assay [6]; -2% in [7]. In addition, the inhibition at 1 µM is -2% in assay [8], -3% in assay [9] and -26% in [10].

`CNC(=O)Nc1cc(-c2cc(N3CCCC[C@@H]3C(F)(F)F)[nH]c(=O)c2)c(C)cn1` [Example 10]: the IC50 in assay [1] lay within 100 to 500 nM. For the same compound, the inhibition at 1 µM is 0% in assay [2]; -12% in assay [3]; -3% in assay [4]; -16% in assay [5]; 3% in [6]; 1% in [7]. In addition, the inhibition at 1 µM in [8] was -3%; in assay [9] it was 0%; in [10] it was -23%.

As for `COC(=O)Nc1cc(-c2cc(N3CCCC[C@@H]3C(F)(F)F)[nH]c(=O)c2)c(N)cn1` [Example 14], the IC50 in assay [1] is at most 100 nM. Also, the inhibition at 1 µM in [2] was -5%; in assay [3] it was -9%; in assay [4], 0%; in assay [5], 11%; in assay [6], 3%; in assay [7], -2%. Moreover, the figures for the inhibition at 1 µM in assay [8], in assay [9] and in assay [10] were -3%, -1% and -7%, respectively.

For the compound `COC(=O)Nc1cc(-c2cc(-c3cccnc3C(F)(F)F)[nH]c(=O)c2)c(N)cn1` [Example 15], the concentration for half-maximal inhibition (IC50) in assay [1] lay within 100 to 500 nM. Moreover, the inhibition at 1 µM in assay [2] was -11%; in [3] it was -4%; in assay [4] it was 10%; in assay [5], 16%; in assay [6], -2%; in [7] it was -5%. The inhibition at 1 µM in assay [8] is -19%; in [9] it was -26%; in [10], -12%.

With `O=C(Nc1cc(-c2cc(N3CCCC[C@@H]3C(F)(F)F)[nH]c(=O)c2)c(Cl)cn1)C1CC1` [Example 16], in assay [1], the IC50 was 100 to 500 nM. Moreover, the inhibition at 1 µM was -2% in [2]; -5% in assay [3]; 14% in assay [4]; 29% in assay [5]; -8% in [6]; -2% in [7]. Moreover, the figures for the inhibition at 1 µM in assay [8], in assay [9] and in [10] were -24%, -11% and -24%, respectively.

For the compound `Cc1cnc(NC(=O)C2CC2)cc1-c1cc(N2CCCC[C@@H]2C(F)(F)F)[nH]c(=O)c1` [Example 17], the IC50 in assay [1] is at most 100 nM. The inhibition at 1 µM in assay [2] is -3%; in assay [3], -10%; in [4] it was 6%; in assay [5], 7%; in assay [6], -5%; in [7], 14%. The inhibition at 1 µM was -15% in assay [8], -21% in assay [9] and -17% in assay [10].

On to `COC(=O)Nc1cc(-c2cc(N3CCCC[C@@H]3C(F)(F)F)[nH]c(=O)c2)c(CF)cn1` [Example 18], for which, in assay [1], the half-inhibitory concentration (IC50) was in the range of 100 to 500 nM. In addition, the inhibition at 1 µM in assay [2] was -1%; in assay [3] it was -3%; in [4] it was 16%; in assay [5], -13%; in [6] it was 2%; in assay [7], 13%. Also, the inhibition at 1 µM was -5% in assay [8], -18% in [9] and -2% in [10].

On to `COC(=O)Nc1cc(-c2cc(N3CCCC[C@@H]3C)[nH]c(=O)c2)c(C)cn1` [Example 20], for which the IC50 in assay [1] is 100 to 500 nM. Further, the inhibition at 1 µM in [2] is -5%; in assay [3], -9%; in assay [4], -11%; in assay [5], -10%; in assay [6], -3%; in assay [7], -4%. Further, the inhibition at 1 µM in assay [8] is -2%; in assay [9] it was 5%; in [10], -11%.

For the compound `Cc1cnc(NC(=O)C2CC2)cc1-c1cc(N2CCN(C(=O)c3ccc(F)cc3)C[C@@H]2C)[nH]c(=O)c1` [Example 88], the IC50 in [1] is 1000 to 10000 nM.

On to `Cc1cnc(NC(=O)C2CC2)cc1-c1cc(N2CCN(C(=O)c3cnn(C)c3)C[C@@H]2C)[nH]c(=O)c1` [Example 89], for which the concentration for half-maximal inhibition (IC50) in assay [1] was 500 to 1000 nM.

With `COc1ccc(C(=O)N2CCN(c3cc(-c4cc(NC(=O)C5CC5)ncc4C)cc(=O)[nH]3)[C@@H](C)C2)cc1` [Example 92], the IC50 in [1] is 1000 to 10000 nM.

On to `Cc1cnc(NC(=O)C2CC2)cc1-c1cc(N2CCN(C(=O)CC3CC3)C[C@@H]2C)[nH]c(=O)c1` [Example 93], for which the IC50 in assay [1] lay within 1000 to 10000 nM.

Take `Cc1cnc(NC(=O)C2CC2)cc1-c1cc(N2CCN(C(=O)c3cccnc3)C[C@@H]2C)[nH]c(=O)c1` [Example 94]: in [1], the IC50 was in the range of 1000 to 10000 nM.

For the compound `COCCC(=O)N1CCN(c2cc(-c3cc(NC(=O)C4CC4)ncc3C)cc(=O)[nH]2)[C@@H](C)C1` [Example 95], the IC50 in [1] was 1000 to 10000 nM.

`Cc1nccc(Nc2cc(-c3cc(NS(=O)(=O)c4ccc(F)cc4F)[nH]c(=O)c3)c(C)cn2)n1` [Example 96, 2,4-difluoro-N-(5′-methyl-2′-((2-methylpyrimidin-4-yl)amino)-6-oxo-1,6-dihydro-[4,4′-bipyridin]-2-yl)benzenesulfonamide]: the half-inhibitory concentration (IC50) in assay [1] is 100 to 500 nM.

As to `Cc1cnc(NC(=O)C2CC2)cc1-c1cc(NS(=O)(=O)c2ccc(F)cc2F)[nH]c(=O)c1` [compound 97], the 50% inhibitory concentration (IC50) in assay [1] lay within 100 to 500 nM.
